US20090298780A1, “Methods To Produce Lung Surfactant Formulations Via Lyophilization And Formulations And Uses Thereof” (priority 2004, published 2009)
Values after ≈ are worked out from the molar mass of the structure shown.

Experiments:
[1] = Achievable dissolution concentrations of individual components in 60% TBA cosolvent without NaCl; assay type: physicochemical; settings: 60% TBA without NaCl; for Measured Concentration (mg/ml) AVG: average of 3, room temperature; for Measured Concentration (mg/ml) 1: replicate 1; for Measured Concentration (mg/ml) 2: replicate 2; for Measured Concentration (mg/ml) 3: replicate 3
[2] = Individual component solubility in t-butanol/water solutions (HPLC); settings: about 37° C.
Experimental: Aliquots of each lipid and peptide were accurately weighed into 1.5 ml Eppendorf tubes. […] To each tube 0.2 ml of solvent was added. Each tube was vortexed and then bath sonicated for several minutes to facilitate dissolution. Samples were then placed in a 37° C. bath for approximately 30 minutes and then removed and placed on the counter for up to 30 minutes. […] Three independent Eppendorf tubes were prepared and tested for each solute-solvent combination. Visual observations were made of each tube as to whether they appeared a) clear (i.e., apparently fully soluble), b) to contain non-dissolved material, or c) indeterminate. Small aliquots of each tube were then taken, diluted in the HPLC running buffer, and analyzed by HPLC. HPLC was performed using a CIS column by established methods.

Compound | Measured Concentration (mg/ml) AVG [1] | Measured Concentration (mg/ml) 1 [1] | Measured Concentration (mg/ml) 2 [1] | Measured Concentration (mg/ml) 3 [1] | Solubility (mg/ml) 50% ([2]; 50% t-butanol/water) | Solubility (mg/ml) 80% ([2]; 80% t-butanol/water) | Solubility (mg/ml) 90% ([2]; 90% t-butanol/water) | Solubility (mg/ml) 95% ([2]; 95% t-butanol/water) | Solubility (mg/ml) 97.5% ([2]; 97.5% t-butanol/water) | Solubility (mg/ml) 99% ([2]; 99% t-butanol/water) | Solubility (mg/ml) 100% ([2]; 100% t-butanol)
CCCCCCCCCCCCCCCC(=O)OC[C@H](COP(=O)([O-])OCC[N+](C)(C)C)OC(=O)CCCCCCCCCCCCCCC [DPPC, dipalmitoyl phosphatidylcholine] | 35.0 mg/mL | 34.8 mg/mL | 35.0 mg/mL | 35.2 mg/mL | – | – | – | – | – | – | –
CCCCCCCC/C=C\CCCCCCCC(=O)O[C@H](COC(=O)CCCCCCCCCCCCCCC)COP(=O)(O)OCC(O)CO (stereo partly drawn) [POPG, palmitoyloleoyl phosphatidylglycerol] | 290.9 mg/mL | 298.4 mg/mL | 283.7 mg/mL | 290.6 mg/mL | >47 mg/mL | >119 mg/mL | >160 mg/mL | 34 mg/mL (≈ 45.4 mM) | 20 mg/mL (≈ 26.7 mM) | <5 mg/mL | <5 mg/mL
